Holding throughout (conditions): rat, po, 3 mg/kg
Series [1] in a line: in vivo.
Description: Half life in transgenic rat harboring human angiotensinogen and human renin gene at 3 mg/kg, po
Series [2] in a line: in vivo. This is another data set of the same source.
Series [3] can be described thus: in vivo. The source holds these as a separate data set.
Description: Clearance in transgenic rat harboring human angiotensinogen and human renin gene at 3 mg/kg, po

Regarding `COCCCc1ccc(Cl)c(CN(C(=O)[C@H]2CNCC[C@@H]2c2ccc(OCCOc3c(Cl)cc(C)cc3Cl)nc2)C2CC2)c1`, the half-life in the series “in vivo [1]” was 3.6 h. This compound also had a bioavailability in the series “in vivo [2]” of 28%. In the series “in vivo [3]”, the CL/F is 29 mL/min/kg.
On the same counts, the results for `COCCc1ccc(Cl)c(CN(C(=O)[C@H]2CNCC[C@@H]2c2ccc(N3CC[C@@H](Oc4c(Cl)cc(C)cc4Cl)C3)nc2)C2CC2)c1` are 5.6 h, 8% and 35 mL/min/kg.
In turn, `COCCc1ccc(Cl)c(CN(C(=O)[C@H]2CNCC[C@@H]2c2ccc(OCCOc3c(Cl)cc(C)cc3Cl)nc2)C2CC2)c1` showed a half-life in the series “in vivo [1]” of 5.8 h. In the series “in vivo [2]”, this compound showed a bioavailability of 35%. This compound displayed an apparent clearance (CL/F) in “in vivo [3]” of 21 mL/min/kg.
